Article PMC12841663, “Antiprotozoal Potential of Cultivated Geranium macrorrhizum Against Giardia duodenalis, Trichomonas gallinae and Leishmania infantum” (International Journal of Molecular Sciences, 2026)
≈ marks a conversion by molar mass, not a printed value. Entries after “also recorded” stand apart in the source; their conditions may differ.

Legend:
[1] = system: L. infantum promastigotes; test: Anti-Leishmania activity assay on promastigotes (MTT viability); assay type: cell-based; details: pure compounds
Description: Anti-Leishmania (AL) activity was assessed on L. infantum promastigotes (MCAN/ES/98/LLM-722), kindly provided by Dr. J.M. Requena from CBM-CSIC, as well as on L. infantum (M/CAN/ES/96/BCN150 zymodeme MON-1), strain isolated from a dog with active visceral leishmaniasis. L. infantum promastigotes (MCAN/ES/98/LLM-722) were cultured in RPMI medium supplemented with 15% FBS and 10 μg/mL of hemin (Acros Organics, Madrid, Spain), grown at 26 °C. Promastigotes in logarithmic growth were seeded in 96-well flat-bottom plates at a volume of 100 μL of culture per well and incubated for 48 h. Promastigotes for macrophage infection (M/CAN/ES/96/BCN150 zymodeme MON-1) were maintained at 26 °C in Schneider’s insect medium (Lonza, Basel, Switzerland) supplemented with 10% FBS and 100 U/mL penicillin and 100 μg/mL streptomycin (Lonza, Basel, Switzerland) (Pen-Strep). Promastigotes in the stationary phase of growth (5–6 days) were washed twice in phosphate-buffered saline at 2700× g for 10 min at 22 °C and employed for macrophage infection.
EOs and pure compounds were solved in DMSO (Sigma, Madrid, Spain) (<1% final concentration). […] Trophozoites/promastigotes viability was assessed using the modified MTT colorimetric assay, as described previously in the literature, with results further validated by microscopic examination. The plate was analyzed in a spectrophotometer at a wavelength of 570 nm. The percentage of antiparasitic activity was calculated as growth inhibition, using the following formula: % AT = 100 − [(Ap − Ab) ÷ (Ac − Ab)] × 100, where Ap is the absorbance of the tested product, Ab the absorbance of the blank and Ac the absorbance of the control wells (culture without treatment).
Pure compounds were tested using the same method, although at concentrations of 100, 75, 50, 25, 10, and 1 μg/mL. Metronidazole (Acros Organics, Madrid, Spain) served as a reference compound for anti-Giardia activity and Anti-Trichomonas activity and amphotericin B for anti-Leishmania activity.
Data was analyzed using STATGRAPHICS Centurion XIX (https://www.statgraphics.com) (Statgraphics Technologies, Inc., The Plains, VA, USA). The mammalian cells and trophozoites viability were tested with each compound in a dose–response experiment to calculate their relative potency (CC50 or IC50 value, respectively). IC50 (μg/mL) expresses the dose of EOs, extracts or pure compounds needed to produce 50% mortality of trophozoites, while CC50 (μg/mL) expresses the dose of compounds necessary to produce 50% mortality of Vero cells.

DH82 canine macrophages = test: Cytotoxicity of germacrone on DH82 macrophages (MTT); assay type: cell-based; details: at concentrations of 50 and 100 μg/mL
Description: (§1) Canine DH82 (ATCC®-CRL-10389TM) macrophages were maintained in Dulbecco’s modified Eagle’s medium (DMEM) (Thermo Fisher Scientific, Waltham, MA, USA) supplemented with 10% heat-inactivated FBS (Thermo Fisher Scientific, Waltham, MA, USA), and Pen-Strep at 37 °C in 5% CO2.
(§2) DH82 canine macrophages (5 × 10^4 per well) were seeded in 96-well plates in DMEM and kept overnight at 37 °C and 5% CO2. After washing with PBS, germacrone was added in varying concentrations (10, 50 and 100 μg/mL). After 48 h of treatment, cell viability was determined by the MTT method using a spectrophotometer (Multiskan EX, Thermo Electron Corporation, Vantaa, Finland) at 570 nm. The results were expressed as the cytotoxic concentration of 50% of the cell population (CC50). Amphotericin B (Gibco, Thermo Fisher Scientific, Grand Island, NY, USA) at 1 μg/mL was used as the reference drug. The assays were performed in two independent experiments, each in quadruplicate.

[2] = as above; assay type: cell-based, canine; details: dog, DH82 macrophages; 48 h treatment; MTT; R^2 98.4
Description: as §1, §2

[3] = system: G. duodenalis trophozoites; test: Morphological evaluation by light microscopy (Diff-Quik), G. duodenalis; assay type: cell-based, Giardia duodenalis; details: germacrone 100 µg/mL
Description: Each well contained 435 μL of culture medium and 15 μL of the test or control compounds at the above-mentioned concentrations. The chamber included: two wells for growth control (0.5 h, 48 h), two for germacrone (0.5 h, 48 h), and two for metronidazole (0.5 h, 48 h). Incubation was performed at 37 °C. At each time point, the medium was removed, wells were dried, fixed, and stained with Diff-Quik. Morphological changes were analyzed using light microscopy. Experiments were performed as independent biological replicates on different plates, and one Diff-Quik stained smear was obtained per condition and time point per biological replicate. For morphometric analysis, a total of 30 trophozoites per condition and time point were measured across the independent biological replicates and were selected by consecutive sampling during a predefined serpentine (zig-zag) scan across the preparation. Up to two eligible trophozoites per field (intact, well-focused and non-overlapping) were measured in sequential fields until n = 30 was reached, avoiding subjective selection of “representative” cells. Overlapping, partially visible, out-of-focus, edge-of-field, or debris-obscured trophozoites were excluded a priori. Trophozoites were photographed using a researcher's mobile phone mounted to the microscope ocular. Calibration was performed at the same magnification using a stage micrometre and applied in ImageJ v. 1.54d. One Diff-Quik stained smear was obtained per condition/time point per biological replicate Cell length, cell width, cell surface, nuclear length, nuclear width, axoneme (only Giardia), and length of axostyle (only T. gallinae) were measured with ImageJ software, and the data were recorded in an Excel database for statistical analysis. The Shapiro-Wilk test was used to assess the normality of the morphological variables. When data followed a normal distribution, Student's t-test was applied; otherwise, non-parametric tests, such as the Mann-Whitney U test, was used. Values of p < 0.05 were considered significant. For the morphological analysis, the mean, standard deviation, median, and interquartile range were calculated using SPSS version 20 (IBM Corp., Armonk, NY, USA).

[4] = metronidazole 100 µg/mL, 0.5 and 48 h, control DMSO 1%

## CC(C)=C1C/C=C(\C)CC/C=C(\C)CC1=O [Compound 2, germacrone]
[1]
  IC50: 37.5 µg/mL (≈ 172 µM)
DH82 canine macrophages
  effect on canine macrophages: lethal
[2]
  CC50 at 48 h: 12.9 µg/mL (≈ 59.1 µM)
[3]; [4]
  axoneme length vs control: decreased at 0.5 h; also recorded: at 48 h, germacrone caused an increase
  cell length vs control: significant reductions at 30 min
  cell width vs control: no differences were observed at 0.5 h with germacrone, but after 48 h, a significant increase
  nuclear length (left and right) vs control: decreased significantly with germacrone at 0.5 h and later increased after 48 h
  nuclear width vs control: reduction at 0.5 h, followed by an increase at 48 h
[3]; 48 h of exposure, Diff-Quik
  morphological changes (light microscopy): less defined cytoplasm and nucleus of the cells
